For `CCc1nc2c(NC(=O)C(C)(C)C)nc3ccccc3c2n1CCCCNS(C)(=O)=O` [Example 5, N-(2-Ethyl-1-{4-[(methylsulfonyl)amino]butyl}-1H-imidazo[4,5-c]quinolin-4-yl)-2,2-dimethylpropanamide], the melting point (in general, the temperature of the solid-liquid transition) is 220 to 221 °C.

For the compound `CCc1nc2c(NC(=O)C(C)C)nc3ccccc3c2n1CCCCNS(C)(=O)=O` [Example 4, N-(2-Ethyl-1-{4-[(methylsulfonyl)amino]butyl}-1H-imidazo[4,5-c]quinolin-4-yl)-2-methylpropanamide], the melting point lay within 122 to 124 °C.

`CCc1nc2c(NC(C)=O)nc3ccccc3c2n1CCCCNS(C)(=O)=O` [Example 1, N-(2-Ethyl-1-{4-[(methylsulfonyl)amino]butyl}-1H-imidazo[4,5-c]quinolin-4-yl)acetamide] gave a melting point of 90 to 91 °C.

In turn, `CCCCOC(=O)Nc1nc2ccccc2c2c1nc(CC)n2CCCCNS(C)(=O)=O` [Example 7, Butyl 2-Ethyl-1-{4-[(methylsulfonyl)amino]butyl}-1H-imidazo[4,5-c]quinolin-4-ylcarbamate] returned a melting point of 164 to 166 °C.

Compound `CCc1nc2c(NC(=O)c3ccccc3)nc3ccccc3c2n1CCCCNS(C)(=O)=O` [Example 2, N-(2-Ethyl-1-{4-[(methylsulfonyl)amino]butyl}-1H-imidazo[4,5-c]quinolin-4-yl)benzamide] yielded a melting point of 249 to 250 °C.

As for `CCOC(=O)Nc1nc2ccccc2c2c1nc(CC)n2CCCCNS(C)(=O)=O` [Example 3, Ethyl 2-Ethyl-1-{4-[(methylsulfonyl)amino]butyl}-1H-imidazo[4,5-c]quinolin-4-ylcarbamate], the melting point was in the range of 185 to 187 °C.

In turn, `CCCOC(=O)Nc1nc2ccccc2c2c1nc(CC)n2CCCCNS(C)(=O)=O` [Example 6, Propyl 2-Ethyl-1-{4-[(methylsulfonyl)amino]butyl}-1H-imidazo[4,5-c]quinolin-4-ylcarbamate] registered a melting point of 155 to 157 °C.

Source of the values: US8188111B2, “Amide and carbamate derivatives of alkyl substituted N-[4-(4-amino-1H-imidazo[4,5-c]quinolin-1-yl)butyI]methanesulfonamides and methods” (3M Innovative Properties Company, priority 2005, dated 2012).
